Laboratory results taken from patent US20120046284A1, “Salts and hydrates of 4-[(3-chloro-4-fluoro-phenyl)amino]-6-(cis-4--cyclohexan-1-yloxy)-7-methoxy-quinazoline, their use as a medicament and the preparation thereof” (BOEHRINGER INGELHEIM INTERNATIONAL GMBH, priority 2010, published 2012).
Converted amounts (≈) assume the structure as drawn. Structures can show the parent of a compound that is named as a salt. Values belong to the molecule of their own block, whether it stands above or below them.

Legend:
[1] = Solubility tests in water (2 hours shaking at ambient temperature, UV spectroscopy; pH of saturated solution); assay type: physicochemical; details: for solubility: in water, 2 hours, ambient temperature; for intrinsic pH of the saturated solution: saturated aqueous solution
Procedure: The solubility of the different crystalline forms of formula (I) or (6) in water is determined as follows: approx. 5 mg of the corresponding form are added to 5 ml of water. The mixture is shaken for 2 hours at ambient temperature in an overhead shaker made by the Heidolph company. Then the undissolved fractions are filtered off through a 0.45 μm PTFE filter. The dissolved fraction in the filtrate is determined by UV spectroscopy. In addition, the pH of the saturated aqueous solution is also measured with a standard pH electrode.

human EGF-R = molecular target: T1, human EGF-R (Homo sapiens, UniProt P00533); assay: Inhibition of the EGFR-dependent proliferation (EGF-stimulated murine haematopoietic cell line expressing human EGF-R); assay type: cell-based; details: 20 ng/ml human EGF, 48 hours at 37° C.
T1 construct: expressed in transfected cells
T1 sequence (P00533 25-1210): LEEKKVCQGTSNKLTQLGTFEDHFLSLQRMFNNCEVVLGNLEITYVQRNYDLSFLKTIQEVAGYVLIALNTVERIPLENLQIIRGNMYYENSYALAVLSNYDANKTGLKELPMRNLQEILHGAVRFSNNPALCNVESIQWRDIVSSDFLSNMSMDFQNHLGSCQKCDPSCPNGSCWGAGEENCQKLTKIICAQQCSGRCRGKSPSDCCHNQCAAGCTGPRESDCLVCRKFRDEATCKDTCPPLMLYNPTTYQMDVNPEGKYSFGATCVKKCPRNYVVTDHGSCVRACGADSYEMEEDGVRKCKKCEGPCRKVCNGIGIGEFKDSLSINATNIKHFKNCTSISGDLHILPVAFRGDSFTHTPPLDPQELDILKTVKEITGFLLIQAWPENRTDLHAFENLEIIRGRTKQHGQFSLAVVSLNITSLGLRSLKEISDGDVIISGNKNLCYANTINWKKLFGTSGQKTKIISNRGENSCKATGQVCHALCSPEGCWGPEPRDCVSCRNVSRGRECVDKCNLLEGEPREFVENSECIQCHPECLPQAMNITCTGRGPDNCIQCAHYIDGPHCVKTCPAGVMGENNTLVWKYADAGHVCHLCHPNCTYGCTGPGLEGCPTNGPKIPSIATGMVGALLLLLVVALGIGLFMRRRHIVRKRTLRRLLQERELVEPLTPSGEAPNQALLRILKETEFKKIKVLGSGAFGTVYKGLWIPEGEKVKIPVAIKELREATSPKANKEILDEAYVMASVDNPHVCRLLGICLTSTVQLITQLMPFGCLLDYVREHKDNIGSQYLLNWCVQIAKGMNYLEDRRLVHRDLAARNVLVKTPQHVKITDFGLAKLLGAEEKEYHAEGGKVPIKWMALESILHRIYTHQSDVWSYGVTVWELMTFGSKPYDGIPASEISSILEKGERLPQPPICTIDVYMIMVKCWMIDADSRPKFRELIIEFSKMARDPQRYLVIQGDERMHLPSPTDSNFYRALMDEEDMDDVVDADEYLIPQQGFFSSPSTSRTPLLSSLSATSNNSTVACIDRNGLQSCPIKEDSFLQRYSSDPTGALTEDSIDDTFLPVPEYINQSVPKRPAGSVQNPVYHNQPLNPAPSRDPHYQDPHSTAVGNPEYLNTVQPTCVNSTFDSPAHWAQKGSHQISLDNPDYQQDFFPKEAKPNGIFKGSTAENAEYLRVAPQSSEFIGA
Procedure: A murine haematopoietic cell line is genetically modified so as to express functional human EGF-R. The proliferation of this cell line can therefore be stimulated by EGF.
The test is carried out as follows:
The cells are cultivated in RPMI/1640 medium. The proliferation is stimulated with 20 ng/ml of human EGF (Promega). To investigate the inhibitory activity of the compounds according to the invention these compounds are dissolved in 100% dimethylsulphoxide (DMSO) and added to the cultures in various dilutions, the maximum DMSO concentration being 1%. The cultures are incubated for 48 hours at 37° C.
In order to determine the inhibitory activity of the compound (I.1) according to the invention the relative cell number is measured in O.D. units using the Cell Titer 96TM AQueous Non-Radioactive Cell Proliferation Assay (Promega). The relative cell number is calculated as a percentage of the control and the concentration of active substance which inhibits the proliferation of the cells by 50% (IC50) is derived therefrom.

[2] = Water absorption tests (DVS, hygroscopic characteristics); assay type: physicochemical
Procedure: A DVS-1 made by Surface Measurement Systems (=SMS) is used to investigate the hygroscopic characteristics: the following humidity profiles are used: from 10-90% r.h. in steps of 10%, absorption and desorption profiles are recorded, typical weights: 10-20 mg The corresponding diagrams (kinetic and isothermic plot) of the different forms are shown in FIGS. 1c+d-5c+d.

[3] = listed as monohydrate free base (I.2)
[4] = listed as anhydrous free base (6)
[5] = listed as hemihydrochloride sesquihydrate (I.1)

Structure (SMILES): COc1cc2ncnc(Nc3ccc(F)c(Cl)c3)c2cc1O[C@H]1CC[C@@H](N(C)C(=O)N2CCOCC2)CC1 [Compound (I.2), 4-[(3-chloro-4-fluoro-phenyl)amino]-6-(cis-4-{N-[(morph-1-olin-4-yl)carbonyl]-N-methyl-amino}-cyclohexan-1-yloxy)-7-methoxy-quinazoline]
solubility [1, 3]: <1 µg/mL
intrinsic pH of the saturated solution [1, 3]: 5.9

Structure (SMILES): COc1cc2ncnc(Nc3ccc(F)c(Cl)c3)c2cc1O[C@H]1CC[C@@H](N(C)C(=O)N2CCOCC2)CC1 [(6), 4-[(3-chloro-4-fluoro-phenyl)amino]-6-(cis-4-{N-[(morph-1-olin-4-yl)carbonyl]-N-methyl-amino}-cyclohexan-1-yloxy)-7-methoxy-quinazoline]
solubility [1, 4]: <1 µg/mL
intrinsic pH of the saturated solution [1, 4]: 5.9

Structure (SMILES): COc1cc2ncnc(Nc3ccc(F)c(Cl)c3)c2cc1O[C@H]1CC[C@@H](N(C)C(=O)N2CCOCC2)CC1 [Compound (I.1), 4-[(3-chloro-4-fluoro-phenyl)amino]-6-(cis-4-{N-[(morph-1-olin-4-yl)carbonyl]-N-methyl-amino}-cyclohexan-1-yloxy)-7-methoxy-quinazoline]
IC50 (human EGF-R): 10 nM
solubility [1, 5]: 170 µg/mL (≈ 312 µM)
intrinsic pH of the saturated solution [1, 5]: 6.5
hygroscopic characteristics: change in particle size or phase depending on the relative humidity [2]: no change in particle size or phase change takes place

Further lines, results first:

solubility [1]: 47 µg/mL
intrinsic pH of the saturated solution [1]: 4.0
Structure (SMILES): COc1cc2ncnc(Nc3ccc(F)c(Cl)c3)c2cc1O[C@H]1CC[C@@H](N(C)C(=O)N2CCOCC2)CC1 [low-melting form monohydrochloride (I.3), 4-[(3-chloro-4-fluoro-phenyl)amino]-6-(cis-4-{N-[(morph-1-olin-4-yl)carbonyl]-N-methyl-amino}-cyclohexan-1-yloxy)-7-methoxy-quinazoline]

solubility [1]: 41 µg/mL
intrinsic pH of the saturated solution [1]: 3.3
Structure (SMILES): COc1cc2ncnc(Nc3ccc(F)c(Cl)c3)c2cc1O[C@H]1CC[C@@H](N(C)C(=O)N2CCOCC2)CC1 [high-melting form monohydrochloride (I.3)] [4-[(3-chloro-4-fluoro-phenyl)amino]-6-(cis-4-{N-[(morph-1-olin-4-yl)carbonyl]-N-methyl-amino}-cyclohexan-1-yloxy)-7-methoxy-quinazoline]
